Literature values, collected in patent EP1072609A2, “Cytoprotective agents comprising prosaposin-related peptides” (Sakanaka, Masahiro, priority 1999, dated 2001).
Ends that are not written are not given here.

Experiments:
[1] = system: neurons in the ischemic penumbra of the cerebral cortex; conditions: intracerebroventricular infusion
[2] = intravenous administration

| Compound | cortical infarction [1] | place navigation disability [1] | expression of Bcl-xL (Bcl-xL) | share of intravenously administered peptide transferred into the brain [2] |
| --- | --- | --- | --- | --- |
| CC(C)=CCC[C@](C)(O[C@@H]1O[C@H](CO[C@@H]2O[C@H](CO)[C@@H](O)[C@H](O)[C@H]2O)[C@@H](O)[C@H](O)[C@H]1O)[C@H]1CC[C@]2(C)[C@@H]1[C@H](O)C[C@@H]1[C@@]3(C)CC[C@H](O[C@@H]4O[C@H](CO)[C@@H](O)[C@H](O)[C@H]4O[C@@H]4O[C@H](CO)[C@@H](O)[C@H](O)[C@H]4O)C(C)(C)[C@@H]3CC[C@]12C [ginsenoside Rb1] | ameliorate | ameliorate | stimulates | – |
| LSELIINNATEELLIKGL [18-MP] | – | – | – | approximately 0.03% |
